{
  "source": "patent US10906946B2",
  "about": "“Thrombin inhibitors” (priority 2015, dated 2021)",
  "molecular_target": "T1, thrombin (Homo sapiens, UniProt P00734)",
  "T1 construct": "residues in the termini of the light chain; and in the autolysis loop and C-terminus of the heavy chain; purchased Chemo-Sero-Therapeutic Research Institute (Kaketsuken, Japan), as a gift, not bought",
  "assay": "Cleavage of peptide by thrombin (RP-HPLC, ESI-MS)",
  "type": "biochemical",
  "description": "A. Evaluation of avathrin cleavage by thrombin by HPLC chromatograms. Avathrin (150 μM) was incubated with thrombin (5 μM) for various times and the reaction mixtures were separated using RP-HPLC; the masses of the cleavage products were analyzed with ESI-MS. At 0 min (upper panel), a single peak corresponding to full length avathrin (mass 3139 Da) was identified. At 120 min (middle panel), two new peaks corresponding to N-terminal cleavage product (^1[…]^10 of SEQ ID NO: 1; mass 982 Da) and C-terminal cleavage product ([…] (SEQ ID NO: 4); mass 2176 Da) were identified in addition to avathrin peak. At 600 min (lower panel), two peaks corresponding to the N- and C-terminal cleaved products were observed while avathrin peak was not observed, indicating complete cleavage. B. Time-dependent cleavage of avathrin by thrombin. Relative percentages of avathrin, its N- and C-terminal cleavage products were quantified by calculating areas under the curve. Each data point is the mean±S.D. of at least three independent experiments. C. Effect of thrombin cleavage on inhibitory properties of avathrin. Avathrin was incubated with thrombin (0.81 nM) for up to 36 h, and assayed at different time points for its ability to inhibit thrombin amidolytic activity on the chromogenic substrate S2238. […]\nThrombin amidolytic activity assays for all peptides were performed in 96-wells microtiter plates in 50 mM Tris buffer (pH 7.4) containing 100 mM NaCl and 1 mg/ml bovine serum albumin. […] The rates of formation of p-nitroaniline were followed by measuring the absorbance at 405 nm for 10 min with a Tecan InfinitePro M200 microplate reader from Tecan (Männedorf, Switzerland). […] To measure the inhibitory constants, different concentrations of S2238 were used and the residual velocities were determined using the Morrison's tight binding equation. Inhibition of thrombin fibrinogenolytic activity of peptides were tested by measuring absorbance at 650 nm using a Sunrise microplate reader from Tecan (Männedorf, Switzerland) as described previously [Koh C Y, et al., J Biol Chem 282: 29101-13 (2007)]. […] Effects of avathrin on the amidolytic activities of these serine proteases were determined using respective chromogenic substrates. […] After different incubation times, reactions were quenched with 1% TFA (pH 1.8) and loaded onto a Jupiter Proteo column (4 μm, 90 Å, 100×1.0 mm) attached to a Dionex nano-HPLC system from Thermo Fisher Scientific (Waltham, Mass., USA) and eluted using an acetonitrile gradient with 0.05% TFA and 99.95% MilliQ water as eluent A and 0.05% TFA, 19.95% MilliQ water and 80% ACN as eluent B. Masses of all peaks were measured to identify cleavage products, which were subsequently quantified by integrating the peaks and calculating the area under the curves. […]",
  "note": "Peptide text beside a SMILES is read from it.",
  "data": [
    {"smiles": "CC[C@H](C)[C@H](NC(=O)[C@H](CCCCN)NC(=O)[C@@H]1CCCN1C(=O)[C@@H](NC(=O)[C@H](C)NC(=O)[C@@H](NC(=O)[C@H](CCC(N)=O)NC(=O)[C@H](Cc1c[nH]cn1)NC(=O)CNC(=O)CNC(=O)[C@@H](N)CO)[C@@H](C)O)C(C)C)C(=O)N[C@@H](CO)C(=O)N[C@@H](CCCCN)C(=O)N[C@@H](CCC(N)=O)C(=O)NCC(=O)N[C@@H](CC(C)C)C(=O)NCC(=O)NCC(=O)N[C@@H](CC(=O)O)C(=O)N[C@@H](Cc1ccccc1)C(=O)N[C@@H](CCC(=O)O)C(=O)N[C@@H](CCC(=O)O)C(=O)N[C@H](C(=O)N1CCC[C@H]1C(=O)N[C@@H](CO)C(=O)N[C@@H](CC(=O)O)C(=O)N[C@@H](CCC(=O)O)C(=O)N[C@H](C(=O)N[C@H](C(=O)N[C@@H](CCC(=O)O)C(=O)O)[C@@H](C)CC)[C@@H](C)CC)[C@@H](C)CC", "note": "[Avathrin] (H-SGGHQTAVPKISKQGLGGDFEEIPSDEIIE-OH; N-terminus and C-terminus assumed)", "values": [
      {"measurement": "time at which complete cleavage by thrombin was observed", "setting": "avathrin 150 μM, thrombin 5 μM", "value": 600, "unit": "min"}
    ]},
    {"smiles": "CC[C@H](C)[C@H](NC(=O)[C@H](C)NC(=O)[C@H](CC(=O)O)NC(=O)[C@H](CC(=O)O)NC(=O)[C@@H]1CCCN1C(=O)[C@@H](NC(=O)[C@H](CCC(=O)O)NC(=O)[C@H](CCC(=O)O)NC(=O)[C@H](Cc1ccccc1)NC(=O)[C@H](CC(=O)O)NC(=O)CNC(=O)[C@@H]1CCCN1C(=O)[C@@H]1CCCN1C(=O)[C@H](C)NC(=O)[C@@H](NC(=O)[C@H](CO)NC(=O)[C@H](Cc1ccc(O)cc1)NC(=O)[C@H](CCSC)NC(=O)[C@H](CCCCN)NC(=O)[C@@H]1CCCN1C(=O)[C@@H](NC(=O)[C@H](C)NC(=O)[C@H](CCCNC(=N)N)NC(=O)[C@@H](NC(=O)[C@H](C)NC(=O)[C@H](CCC(=O)O)NC(=O)[C@H](CC(=O)O)NC(=O)[C@@H](N)CO)C(C)C)[C@@H](C)CC)[C@@H](C)O)[C@@H](C)CC)C(=O)N[C@@H](CCC(=O)O)C(=O)N[C@@H](CCC(=O)O)C(=O)O", "note": "[Ultravariegin] (H-SDEAVRAIPKMYSTAPPGDFEEIPDDAIEE-OH; N-terminus and C-terminus assumed)", "values": [
      {"measurement": "time to complete cleavage by thrombin", "setting": "peptide incubated with thrombin (30:1)", "value": 18, "unit": "h"}
    ]}
  ]
}
